# ChEMBL document CHEMBL2440076, “New triarylpyrazoles as broad-spectrum anticancer agents: design, synthesis, and biological evaluation” (Eur J Med Chem, 2013)
# Columns and labels:
# Type in all cases: functional
# M14 [1] = experiment: Growth inhibition of human M14 cells assessed as cell growth at 5X10'-9 M after 48 hrs by sulforhodamine B assay; conditions: M14, 48 h, read-out: Activity
# M14 [2] = experiment: Growth inhibition of human M14 cells assessed as cell growth at 5X10'-7 M after 48 hrs by sulforhodamine B assay; conditions: M14, 48 h, read-out: Activity
# UACC-257 = experiment: Growth inhibition of human UACC257 cells assessed as cell growth at 5X10'-6 M after 48 hrs by sulforhodamine B assay; conditions: UACC-257, 48 h, read-out: Activity
# A549 [3] = experiment: Growth inhibition of human A549/ATCC cells assessed as cell growth at 5X10'-6 M after 48 hrs by sulforhodamine B assay; conditions: A549, 48 h, read-out: Activity
# CCRF-CEM = experiment: Growth inhibition of human CCRF-CEM cells assessed as cell growth at 5X10'-9 M after 48 hrs by sulforhodamine B assay; conditions: read-out: Activity
# NCI-H23 = experiment: Growth inhibition of human NCI-H23 cells assessed as cell growth at 5X10'-5 M after 48 hrs by sulforhodamine B assay; conditions: NCI-H23, 48 h, read-out: Activity
# MCF7 [4] = experiment: Growth inhibition of human MCF7 cells assessed as cell growth at 5X10'-7 M after 48 hrs by sulforhodamine B assay; conditions: MCF7, 48 h, read-out: Activity
# MOLT-4 = experiment: Growth inhibition of human MOLT4 cells assessed as cell growth at 5X10'-6 M after 48 hrs by sulforhodamine B assay; conditions: MOLT-4, 48 h, read-out: Activity
# HOP-62 = experiment: Growth inhibition of human HOP62 cells assessed as cell growth at 5X10'-6 M after 48 hrs by sulforhodamine B assay; conditions: HOP-62, 48 h, read-out: Activity
# TK-10 [5] = experiment: Growth inhibition of human TK10 cells assessed as cell growth at 3X10'-5 M after 48 hrs by sulforhodamine B assay; conditions: TK-10, 48 h, read-out: Activity
# MCF7 [6] = experiment: Growth inhibition of human MCF7 cells assessed as cell growth at 3X10'-9 M after 48 hrs by sulforhodamine B assay; conditions: MCF7, 48 h, read-out: Activity
# OVCAR-3 = experiment: Growth inhibition of human OVCAR3 cells assessed as cell growth at 3X10'-9 M after 48 hrs by sulforhodamine B assay; conditions: OVCAR-3, 48 h, read-out: Activity
# KM12 = experiment: Growth inhibition of human KM12 cells assessed as cell growth at 3X10'-7 M after 48 hrs by sulforhodamine B assay; conditions: KM12, 48 h, read-out: Activity
# IGROV-1 = experiment: Growth inhibition of human IGROV1 cells assessed as cell growth at 3X10'-6 M after 48 hrs by sulforhodamine B assay; conditions: IGROV-1, 48 h, read-out: Activity
# Malme-3M = experiment: Growth inhibition of human MALME-3M cells assessed as cell growth at 3X10'-7 M after 48 hrs by sulforhodamine B assay; conditions: read-out: Activity
# SNB-75 = experiment: Growth inhibition of human SNB75 cells assessed as cell growth at 3X10'-6 M after 48 hrs by sulforhodamine B assay; conditions: SNB-75, 48 h, read-out: Activity
# NCI-H522 = experiment: Growth inhibition of human NCI-H522 cells assessed as cell growth at 3X10'-5 M after 48 hrs by sulforhodamine B assay; conditions: NCI-H522, 48 h, read-out: Activity
# SK-OV-3 [7] = experiment: Growth inhibition of human SKOV3 cells assessed as cell growth at 3X10'-9 M after 48 hrs by sulforhodamine B assay; conditions: SK-OV-3, 48 h, read-out: Activity
# ACHN = experiment: Growth inhibition of human ACHN cells assessed as cell growth at 3X10'-5 M after 48 hrs by sulforhodamine B assay; conditions: read-out: Activity
# NCI-H460 = experiment: Growth inhibition of human NCI-H460 cells assessed as cell growth at 3X10'-6 M after 48 hrs by sulforhodamine B assay; conditions: NCI-H460, 48 h, read-out: Activity
# SN12C = experiment: Growth inhibition of human SN12C cells assessed as cell growth at 3X10'-8 M after 48 hrs by sulforhodamine B assay; conditions: read-out: Activity
# LOX IMVI [8] = experiment: Growth inhibition of human LOXIMVI cells assessed as cell growth at 3X10'-7 M after 48 hrs by sulforhodamine B assay; conditions: read-out: Activity
# TK-10 [9] = experiment: Growth inhibition of human TK10 cells assessed as cell growth at 3X10'-6 M after 48 hrs by sulforhodamine B assay; conditions: TK-10, 48 h, read-out: Activity
# HL-60(TB) = experiment: Growth inhibition of human HL-60(TB) cells assessed as cell growth at 3X10'-9 M after 48 hrs by sulforhodamine B assay; conditions: HL-60, 48 h, read-out: Activity
# A549 [10] = experiment: Growth inhibition of human A549/ATCC cells assessed as cell growth at 3X10'-7 M after 48 hrs by sulforhodamine B assay; conditions: A549, 48 h, read-out: Activity
# COLO 205 = experiment: Growth inhibition of human COLO205 cells assessed as cell growth at 3X10'-5 M after 48 hrs by sulforhodamine B assay; conditions: COLO 205, 48 h, read-out: Activity
# SK-MEL-28 = experiment: Growth inhibition of human SK-MEL-28 cells assessed as cell growth at 3X10'-6 M after 48 hrs by sulforhodamine B assay; conditions: SK-MEL-28, 48 h, read-out: Activity
# LOX IMVI [11] = experiment: Growth inhibition of human LOXIMVI cells assessed as cell growth at 3X10'-5 M after 48 hrs by sulforhodamine B assay; conditions: read-out: Activity
# A498 = experiment: Growth inhibition of human A498 cells assessed as cell growth at 3X10'-6 M after 48 hrs by sulforhodamine B assay; conditions: A498, 48 h, read-out: Activity
# SK-OV-3 [12] = experiment: Growth inhibition of human SKOV3 cells assessed as cell growth at 3X10'-6 M after 48 hrs by sulforhodamine B assay; conditions: SK-OV-3, 48 h, read-out: Activity
# 786-0 = experiment: Growth inhibition of human 786-0 cells assessed as cell growth at 3X10'-9 M after 48 hrs by sulforhodamine B assay; conditions: 786-0, 48 h, read-out: Activity
# LOX IMVI [13] = experiment: Growth inhibition of human LOXIMVI cells assessed as cell growth at 3X10'-6 M after 48 hrs by sulforhodamine B assay; conditions: read-out: Activity
# SR = experiment: Growth inhibition of human SR cells assessed as cell growth at 3X10'-9 M after 48 hrs by sulforhodamine B assay; conditions: read-out: Activity
# UO-31 = experiment: Growth inhibition of human UO31 cells assessed as cell growth at 3X10'-6 M after 48 hrs by sulforhodamine B assay; conditions: UO-31, 48 h, read-out: Activity
# HT-29 = experiment: Growth inhibition of human HT-29 cells assessed as cell growth at 3X10'-5 M after 48 hrs by sulforhodamine B assay; conditions: HT-29, 48 h, read-out: Activity
# DU-145 = experiment: Growth inhibition of human DU145 cells assessed as cell growth at 3X10'-5 M after 48 hrs by sulforhodamine B assay; conditions: DU-145, 48 h, read-out: Activity
# NCI-H226 = experiment: Growth inhibition of human NCI-H226 cells assessed as cell growth at 3X10'-8 M after 48 hrs by sulforhodamine B assay; conditions: NCI-H226, 48 h, read-out: Activity
Compound,growth at 0.005 µM (M14 [1]) [%],growth at 0.5 µM (M14 [2]) [%],growth at 5 µM (UACC-257) [%],growth at 5 µM (A549 [3]) [%],growth at 0.005 µM (CCRF-CEM) [%],growth at 50 µM (NCI-H23) [%],growth at 0.5 µM (MCF7 [4]) [%],growth at 5 µM (MOLT-4) [%],growth at 5 µM (HOP-62) [%],growth at 0.003 µM (MCF7 [6]) [%],growth at 0.003 µM (OVCAR-3) [%],growth at 0.3 µM (KM12) [%],growth at 3 µM (IGROV-1) [%],growth at 0.3 µM (Malme-3M) [%],growth at 30 µM (NCI-H522) [%],growth at 0.003 µM (SK-OV-3 [7]) [%],growth at 30 µM (ACHN) [%],growth at 3 µM (NCI-H460) [%],growth at 0.03 µM (SN12C) [%],growth at 0.3 µM (LOX IMVI [8]) [%],other results
COc1cc(-c2nn(-c3cccc(NC(=O)Nc4cc(C(F)(F)F)cc(C(F)(F)F)c4)c3)cc2-c2ccncc2)ccc1Cl,105,71,-40,-31,101,-59,68,-4,-92,–,–,–,–,–,–,–,–,–,–,–,–
COc1cc(-c2nn(-c3cccc(NC(=O)c4ccc(Cl)c(C(F)(F)F)c4)c3)cc2-c2ccncc2)ccc1Cl,–,–,–,–,–,–,–,–,–,93,104,95,40,88,-7,100,32,51,99,86,growth at 30 µM (TK-10 [5]): 44%; growth at 3 µM (SNB-75): 44%; growth at 3 µM (TK-10 [9]): 74%; growth at 0.003 µM (HL-60(TB)): 93%; growth at 0.3 µM (A549 [10]): 92%; growth at 30 µM (COLO 205): -13%; growth at 3 µM (SK-MEL-28): 49%; growth at 30 µM (LOX IMVI [11]): 16%; growth at 3 µM (A498): 47%; growth at 3 µM (SK-OV-3 [12]): 71%; growth at 0.003 µM (786-0): 94%; growth at 3 µM (LOX IMVI [13]): 39%; growth at 0.003 µM (SR): 99%; growth at 3 µM (UO-31): 29%; growth at 30 µM (HT-29): 3%; growth at 30 µM (DU-145): 10%; growth at 0.03 µM (NCI-H226): 92%
O=C(Nc1cccc(-n2cc(-c3ccncc3)c(-c3ccc(Cl)c(O)c3)n2)c1)Nc1ccc(Cl)c(C(F)(F)F)c1,–,–,–,–,–,–,–,–,–,93,109,96,-17,77,-55,102,2,4,94,87,growth at 30 µM (TK-10 [5]): -19%; growth at 3 µM (TK-10 [9]): 24%; growth at 0.003 µM (HL-60(TB)): 116%; growth at 0.3 µM (A549 [10]): 86%; growth at 30 µM (COLO 205): -90%; growth at 3 µM (SK-MEL-28): 1%; growth at 30 µM (LOX IMVI [11]): -91%; growth at 3 µM (A498): 24%; growth at 3 µM (SK-OV-3 [12]): 22%; growth at 0.003 µM (786-0): 98%; growth at 3 µM (LOX IMVI [13]): -71%; growth at 0.003 µM (SR): 106%; growth at 3 µM (UO-31): -3%; growth at 30 µM (HT-29): -63%; growth at 30 µM (DU-145): -58%; growth at 0.03 µM (NCI-H226): 86%
COc1cc(-c2nn(-c3cccc(NC(=O)c4cccc(C(F)(F)F)c4)c3)cc2-c2ccncc2)ccc1Cl,95,91,56,19,100,-3,81,23,47,–,–,–,–,–,–,–,–,–,–,–,–
COc1cc(-c2nn(-c3cccc(NC(=O)Nc4ccc(Cl)c(Cl)c4)c3)cc2-c2ccncc2)ccc1Cl,100,78,-22,3,101,-9,68,-4,-1,–,–,–,–,–,–,–,–,–,–,–,–
COc1cc(-c2nn(-c3cccc(NC(=O)Nc4cccc(C(F)(F)F)c4)c3)cc2-c2ccncc2)ccc1Cl,96,73,-42,3,104,-37,60,-14,-9,–,–,–,–,–,–,–,–,–,–,–,–
COc1cc(-c2nn(-c3cccc(NC(=O)Nc4ccc(Cl)c(C(F)(F)F)c4)c3)cc2-c2ccncc2)ccc1Cl,–,–,–,–,–,–,–,–,–,94,105,95,5,96,-21,105,-4,6,94,97,growth at 30 µM (TK-10 [5]): -15%; growth at 3 µM (SNB-75): 24%; growth at 3 µM (TK-10 [9]): 25%; growth at 0.003 µM (HL-60(TB)): 101%; growth at 0.3 µM (A549 [10]): 89%; growth at 30 µM (COLO 205): -94%; growth at 3 µM (SK-MEL-28): 16%; growth at 30 µM (LOX IMVI [11]): -72%; growth at 3 µM (A498): 12%; growth at 3 µM (SK-OV-3 [12]): 21%; growth at 0.003 µM (786-0): 101%; growth at 3 µM (LOX IMVI [13]): 13%; growth at 0.003 µM (SR): 105%; growth at 3 µM (UO-31): 3%; growth at 30 µM (HT-29): -63%; growth at 30 µM (DU-145): 2%; growth at 0.03 µM (NCI-H226): 92%
O=C(Nc1cccc(-n2cc(-c3ccncc3)c(-c3ccc(Cl)c(O)c3)n2)c1)c1ccc(N2CCOCC2)c(C(F)(F)F)c1,96,84,57,39,98,-13,78,32,67,–,–,–,–,–,–,–,–,–,–,–,–
O=C(Nc1cccc(-n2cc(-c3ccncc3)c(-c3ccc(Cl)c(O)c3)n2)c1)Nc1ccc(Cl)c(Cl)c1,–,–,–,–,–,–,–,–,–,97,96,90,29,102,-13,96,1,2,96,90,growth at 3 µM (SNB-75): 20%; growth at 3 µM (TK-10 [9]): 31%; growth at 0.003 µM (HL-60(TB)): 90%; growth at 0.3 µM (A549 [10]): 85%; growth at 30 µM (COLO 205): -70%; growth at 3 µM (SK-MEL-28): 25%; growth at 30 µM (LOX IMVI [11]): -77%; growth at 3 µM (A498): -1%; growth at 3 µM (SK-OV-3 [12]): 13%; growth at 0.003 µM (786-0): 97%; growth at 3 µM (LOX IMVI [13]): 3%; growth at 0.003 µM (SR): 91%; growth at 3 µM (UO-31): 19%; growth at 30 µM (HT-29): 3%; growth at 30 µM (DU-145): 9%; growth at 0.03 µM (NCI-H226): 97%
O=C(Nc1cccc(-n2cc(-c3ccncc3)c(-c3ccc(Cl)c(O)c3)n2)c1)Nc1cc(C(F)(F)F)cc(C(F)(F)F)c1,104,59,-35,-33,95,-75,52,-5,-64,–,–,–,–,–,–,–,–,–,–,–,–
